Source: PubChem BioAssay AID256 (DTP/NCI, 2004)
Several values for one entry are separate records, joined by “and”; a condition that tells them apart may be missing. Equal entries are not always repeated. Toxic doses and inconclusive results are not listed.

System: CD2F1 mice, L1210 leukemia ip, survival T/C
Test: NCI In Vivo Anticancer Drug Screen. Data for tumor model L1210 Leukemia (intraperitoneal) in CD2F1 (CDF1) mice
Details: higher = longer survival
Summary of the method: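 Mice carrying a transplanted tumor received test compound or vehicle alone. The value is the measurement in the treated group divided by that in the vehicle-treated control group.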

[1] = endpoint: mean survival time, dose: 100.0 mg/kg/injection, schedule: Q04DX003 (ip), vehicle: saline
[2] = endpoint: mean survival time, dose: 100.0 mg/kg/injection, schedule: Q01DX009 (ip), vehicle: saline with Tween-80
[3] = endpoint: mean survival time, dose: 100.0 mg/kg/injection, schedule: Q04DX003 (ip), vehicle: saline with Tween-80
[4] = endpoint: mean survival time, dose: 200.0 mg/kg/injection, schedule: Q04DX003 (ip), vehicle: saline with Tween-80
[5] = endpoint: mean survival time, dose: 400.0 mg/kg/injection, schedule: Q04DX003 (ip), vehicle: saline with Tween-80
[6] = endpoint: mean survival time, dose: 200.0 mg/kg/injection, schedule: Q04DX003 (ip), vehicle: saline
[7] = endpoint: mean survival time, dose: 400.0 mg/kg/injection, schedule: Q04DX003 (ip), vehicle: saline

For `CC(C)(C)OC(=O)NC(CSC(c1ccccc1)(c1ccccc1)c1ccccc1)C(=O)NCC(=O)O` (stereo unspecified), the T/C (endpoint: mean survival time, dose: 75.0 mg/kg/injection, schedule: Q01DX001 (ip), vehicle: saline) was 96 % of control.
In the case of `CCCCC(=O)OCC(=O)[C@]1(O)Cc2c(O)c3c(c(O)c2[C@@H](OC2CC(NC(=O)C(F)(F)F)C(O)C(C)O2)C1)C(=O)c1c(OC)cccc1C3=O` (stereo partly specified), the T/C (endpoint: mean survival time, dose: 4.0 mg/kg/injection, schedule: Q01DX009 (ip), vehicle: Klucel (hydroxypropylcellulose) (HPC)) is reported as 113 % of control, the T/C (endpoint: mean survival time, dose: 4.0 mg/kg/injection, schedule: Q01DX009 (ip), vehicle: water) is reported as 97 % of control and the T/C (endpoint: mean survival time, dose: 8.0 mg/kg/injection, schedule: Q01DX009 (ip), vehicle: Klucel (hydroxypropylcellulose) (HPC)) is reported as 118 % of control. For the same compound, the T/C (endpoint: mean survival time, dose: 8.0 mg/kg/injection, schedule: Q01DX009 (ip), vehicle: water) was 101 % of control, the T/C (endpoint: mean survival time, dose: 16.0 mg/kg/injection, schedule: Q01DX009 (ip), vehicle: water) was 106 % of control and the T/C (endpoint: mean survival time, dose: 32.0 mg/kg/injection, schedule: Q01DX009 (ip), vehicle: Klucel (hydroxypropylcellulose) (HPC)) was 150 % of control. The T/C (endpoint: mean survival time, dose: 32.0 mg/kg/injection, schedule: Q01DX009 (ip), vehicle: water) was 111 % of control, the T/C (endpoint: mean survival time, dose: 64.0 mg/kg/injection, schedule: Q01DX009 (ip), vehicle: Klucel (hydroxypropylcellulose) (HPC)) was 167 % of control and the T/C (endpoint: mean survival time, dose: 64.0 mg/kg/injection, schedule: Q01DX009 (ip), vehicle: water) was 113 % of control. For the same compound, the T/C (endpoint: mean survival time, dose: 128.0 mg/kg/injection, schedule: Q01DX009 (ip), vehicle: Klucel (hydroxypropylcellulose) (HPC)) was 250 % of control, the T/C (endpoint: median survival time, dose: 13.0 mg/kg/injection, schedule: Q10HX004 (ip), vehicle: other) was 100 % of control and the T/C (endpoint: median survival time, dose: 21.6 mg/kg/injection, schedule: Q10HX004 (ip), vehicle: other) was 102 % of control. For the same compound, the T/C (endpoint: median survival time, dose: 36.0 mg/kg/injection, schedule: Q10HX004 (ip), vehicle: other) was 114 % of control, the T/C (endpoint: median survival time, dose: 60.0 mg/kg/injection, schedule: Q10HX004 (ip), vehicle: other) was 118 % of control and the T/C (endpoint: median survival time, dose: 100.0 mg/kg/injection, schedule: Q10HX004 (ip), vehicle: other) was 153 % of control.
With `CN(C)CCCNC1CCC(NCCCN(C)C)CC1` (stereo unspecified) the T/C (endpoint: mean survival time, dose: 25.0 mg/kg/injection, schedule: Q01DX009 (ip), vehicle: saline) was 96 % of control and the T/C [1] was 98 % of control.
`CCOC(=O)C1(C(=O)OCC)C(C)CC2Nc3cc4c(cc3C(=O)N21)OCO4` (stereo unspecified) was tested, and the T/C (endpoint: mean survival time, dose: 100.0 mg/kg/injection, schedule: Q01DX001 (ip), vehicle: Klucel (hydroxypropylcellulose) (HPC)) was 92 % of control, the T/C (endpoint: mean survival time, dose: 200.0 mg/kg/injection, schedule: Q01DX001 (ip), vehicle: Klucel (hydroxypropylcellulose) (HPC)) was 96 % of control and the T/C (endpoint: mean survival time, dose: 400.0 mg/kg/injection, schedule: Q01DX001 (ip), vehicle: Klucel (hydroxypropylcellulose) (HPC)) was 96 % of control.
`C=CC(=O)NC(C)(C)CC(C)(C)C` was tested, and the T/C [2] was 105 % of control, the T/C [3] was 92 % of control and the T/C [4] was 102 % of control. For the same compound, the T/C [5] was 96 % of control.
With `Clc1cccc(-n2ccnc2)c1` the T/C [2] was 109 % of control and the T/C (endpoint: mean survival time, dose: 200.0 mg/kg/injection, schedule: Q01DX009 (ip), vehicle: saline with Tween-80) was 113 % of control.
`CCCN1CCc2cc3c(cc2C1)OCO3` was tested, and the T/C (endpoint: mean survival time, dose: 100.0 mg/kg/injection, schedule: Q01DX001 (ip), vehicle: saline) was 100 % of control.
In the case of `CCOc1cc2c(cc1C(C)c1ccc(OC)cc1)OCO2` (stereo unspecified), the T/C (endpoint: median survival time, dose: 12.5 mg/kg/injection, schedule: Q01DX009 (ip), vehicle: distilled water + alcohol) is reported as 103 % of control, the T/C (endpoint: median survival time, dose: 25.0 mg/kg/injection, schedule: Q01DX009 (ip), vehicle: distilled water + alcohol) is reported as 93 % of control and 104 % of control and the T/C (endpoint: median survival time, dose: 50.0 mg/kg/injection, schedule: Q01DX009 (ip), vehicle: distilled water + alcohol) is reported as 115 % of control and 98 % of control. For the same compound, the T/C (endpoint: median survival time, dose: 100.0 mg/kg/injection, schedule: Q01DX009 (ip), vehicle: distilled water + alcohol) was 98 % of control and 108 % of control and the T/C (endpoint: median survival time, dose: 200.0 mg/kg/injection, schedule: Q01DX009 (ip), vehicle: distilled water + alcohol) was 111 % of control.
With `OC(Cc1ccnc2ccccc12)C(Cl)(Cl)Cl` (stereo unspecified) the T/C [1] was 103 % of control, the T/C [6] was 103 % of control and the T/C [7] was 97 % of control.
`COC1=CC(=O)C(C2CC(=O)c3c(O)cc(O)cc3O2)=CC1=O` (stereo unspecified) was tested, and the T/C [2] was 101 % of control, the T/C [3] was 100 % of control and the T/C [4] was 100 % of control. The T/C [5] was 98 % of control.
`CN=C1C=C(NC)C(F)(F)C1(F)F` was tested, and the T/C (endpoint: mean survival time, dose: 6.25 mg/kg/injection, schedule: Q04DX003 (ip), vehicle: saline) was 98 % of control, the T/C (endpoint: mean survival time, dose: 12.5 mg/kg/injection, schedule: Q04DX003 (ip), vehicle: saline) was 101 % of control and the T/C (endpoint: mean survival time, dose: 25.0 mg/kg/injection, schedule: Q04DX003 (ip), vehicle: saline) was 101 % of control.
With `NC(CCl)=NCc1ccccn1` the T/C (endpoint: mean survival time, dose: 25.0 mg/kg/injection, schedule: Q04DX002 (ip), vehicle: saline) was 108 % of control, the T/C (endpoint: mean survival time, dose: 50.0 mg/kg/injection, schedule: Q04DX002 (ip), vehicle: saline) was 97 % of control and the T/C (endpoint: mean survival time, dose: 100.0 mg/kg/injection, schedule: Q04DX002 (ip), vehicle: saline) was 101 % of control.
In the case of `COc1nc(NC2OC(CO)C(O)C(O)C2O)c(Br)c(=O)n1C` (stereo unspecified), the T/C (endpoint: median survival time, dose: 12.5 mg/kg/injection, schedule: Q01DX005 (ip), vehicle: saline with Tween-80) is reported as 101 % of control, the T/C (endpoint: median survival time, dose: 25.0 mg/kg/injection, schedule: Q01DX005 (ip), vehicle: saline with Tween-80) is reported as 101 % of control and the T/C (endpoint: median survival time, dose: 50.0 mg/kg/injection, schedule: Q01DX005 (ip), vehicle: saline with Tween-80) is reported as 100 % of control. The T/C (endpoint: median survival time, dose: 100.0 mg/kg/injection, schedule: Q01DX005 (ip), vehicle: saline with Tween-80) was 102 % of control and the T/C (endpoint: median survival time, dose: 200.0 mg/kg/injection, schedule: Q01DX005 (ip), vehicle: saline with Tween-80) was 96 % of control.
`CCOC(=O)C(=O)C[n+]1cc2ccccc2cc1/C=N/O` was tested, and the T/C [1] was 105 % of control, the T/C [6] was 105 % of control and the T/C [7] was 94 % of control.
For `Cc1cc(NC(=O)Oc2ccccc2)ccc1S(=O)(=O)F`, the T/C (endpoint: mean survival time, dose: 50.0 mg/kg/injection, schedule: Q01DX009 (ip), vehicle: saline) was 98 % of control, the T/C (endpoint: mean survival time, dose: 100.0 mg/kg/injection, schedule: Q01DX009 (ip), vehicle: saline) was 94 % of control and the T/C (endpoint: mean survival time, dose: 200.0 mg/kg/injection, schedule: Q01DX009 (ip), vehicle: saline) was 98 % of control.
For `[Cl][Pt+2][Cl].[NH-]CC1CCCCC1[NH-]` (stereo unspecified), the T/C (endpoint: mean survival time, dose: 3.12 mg/kg/injection, schedule: Q04DX003 (ip), vehicle: saline with Tween-80) was 222 % of control, the T/C (endpoint: mean survival time, dose: 6.25 mg/kg/injection, schedule: Q04DX003 (ip), vehicle: saline with Tween-80) was 319 % of control and 175 % of control and the T/C (endpoint: mean survival time, dose: 12.5 mg/kg/injection, schedule: Q04DX003 (ip), vehicle: saline with Tween-80) was 348 % of control and 270 % of control. The T/C (endpoint: mean survival time, dose: 25.0 mg/kg/injection, schedule: Q04DX003 (ip), vehicle: saline with Tween-80) was 309 % of control.
For `NC(=S)c1ncn(C2OC(COC=O)C(OC=O)C2OC=O)c1NC=O` (stereo unspecified), the T/C (endpoint: mean survival time, dose: 50.0 mg/kg/injection, schedule: Q04DX002 (ip), vehicle: Klucel (hydroxypropylcellulose) (HPC)) was 121 % of control, the T/C (endpoint: mean survival time, dose: 100.0 mg/kg/injection, schedule: Q01DX009 (ip), vehicle: Klucel (hydroxypropylcellulose) (HPC)) was 151 % of control and the T/C (endpoint: mean survival time, dose: 100.0 mg/kg/injection, schedule: Q04DX002 (ip), vehicle: saline with Tween-80) was 166 % of control. The T/C (endpoint: mean survival time, dose: 200.0 mg/kg/injection, schedule: Q01DX009 (ip), vehicle: Klucel (hydroxypropylcellulose) (HPC)) was 117 % of control, the T/C (endpoint: mean survival time, dose: 200.0 mg/kg/injection, schedule: Q04DX002 (ip), vehicle: saline with Tween-80) was 158 % of control and the T/C (endpoint: mean survival time, dose: 400.0 mg/kg/injection, schedule: Q04DX002 (ip), vehicle: Klucel (hydroxypropylcellulose) (HPC)) was 159 % of control. The T/C (endpoint: mean survival time, dose: 400.0 mg/kg/injection, schedule: Q04DX002 (ip), vehicle: saline with Tween-80) was 154 % of control, the T/C (endpoint: median survival time, dose: 12.5 mg/kg/injection, schedule: Q01DX009 (ip), vehicle: Klucel (hydroxypropylcellulose) (HPC)) was 111 % of control and the T/C (endpoint: median survival time, dose: 25.0 mg/kg/injection, schedule: Q01DX009 (ip), vehicle: Klucel (hydroxypropylcellulose) (HPC)) was 122 % of control. The T/C (endpoint: median survival time, dose: 200.0 mg/kg/injection, schedule: Q01DX009 (ip), vehicle: Klucel (hydroxypropylcellulose) (HPC)) was 154 % of control and 166 % of control.
